{"source": "patent US11526981B2", "about": "“Ecotoxicity evaluation analyzing device including microalgae image analysis program installed therein, and method thereof” (KOREA INSTITUTE OF OCEAN SCIENCE & TECHNOLOGY, priority 2017, dated 2022)", "test_system": "dunaliella tertiolecta", "experiment": "growth inhibition test (72 h) using microalgae, ecotoxicity evaluation", "format": "cell-based", "settings": "20° C.", "description": "The used microalgae 1 is dunaliella tertiolecta, and when exposed to stress (toxicity), transforms the state from the original form 51 into a cyst form 61 and loses mobility.\nAcetone was used as a toxic substance. In a test method using an exponential formula, the temperature was maintained at 20° C., and the Irradiation was continuously performed using a white fluorescent lamp with an illuminance of 6,000 to 7,000 lx.\nThree replicated plots were inoculated with an initial concentration of 20,000 cells/mL, and the shaking speed was set to 100 r/min. Non-toxic filtered seawater containing nutrient medium was used as a dilution water, and growth inhibition was analyzed for 72 hours.\nThe experimental conditions in examples of the ecotoxicity evaluation analysis device 100 installed with the microalgae image analysis program therein according to the present invention and the analysis method using the same are shown in Table 2.\nReferring to FIG. 5, in an example of the microalgae analysis method using the ecotoxicity evaluation analysis device 100 installed with the microalgae image analysis program therein according to the present invention, the performance of the technology of the present invention was verified using representative SR chamber and hemocytometer of the microalgae analysis method as controls. Here, the concentration of the microalgae 1 contained in the sample was analyzed every 24 hours. Cells were dyed in the two controls, whereas measurements were performed without dyeing the cells in the present technology. In the controls, a microscope (200×) was used, and a microalgae 1 counting was performed manually by an experienced expert.\nReferring to FIG. 6, a growth inhibition test using microalgae 1 is performed to obtain a 50% effective concentration (EC50) of a toxic substance. The 50% effective concentration is treated as an important data base for various toxicity analysis. […]", "data": [{"compound": "CC(C)=O", "note": "[acetone]", "values": [{"measurement": "50% effective concentration (EC50)", "setting": "counting by SR chamber (manual, microscope, dyed cells)", "result": 25.6, "unit": "mL/L"}, {"measurement": "50% effective concentration (EC50)", "setting": "counting by developed analyzer (present invention technology, CMOS shadow image, no dyeing)", "result": 24.2, "unit": "mL/L"}, {"measurement": "50% effective concentration (EC50)", "setting": "counting by hemocytometer (manual, microscope, dyed cells)", "result": 24.9, "unit": "mL/L"}]}]}
